According to patent US20040039050A1, “Cryptotanshinone for preventing and alleviating alzheimer's disease” (priority 2001, published 2004):

Tests used:
healthy male mice [1] = assay: Acute toxicity test in mouse; assay type: in vivo; conditions: intragastric
Source text: The drug was administrated intragastrically.

hyperammonemia rat model [2] = assay: Blood ammonia reducing experiment (injection); assay type: in vivo, SD rats; conditions: for Reduction rate: blood ammonia, intraperitoneal for 4 days
Procedure: The animals used in this experiment were 50 healthy male SD rats weighing 250-300 g. They were randomly divided into 5 groups, that is, normal control group, experimental control group (acetamide group), sodium glutamate/acetamide group, Cryptotanshinone/acetamide group and tanshinone IIA/acetamide group. The rats in all those groups except the normal control group were injected intraperitoneally with saline, sodium glutamate injection (with a dose of 410 mg/kg), saline solution of Cryptotanshinone (containing small amount of surface active agent, with a dose of 10 mg/kg), saline solution of tanshinone IIA (containing small amount of surface active agent, with a dose of 10 mg/kg) respectively. 45 min after the injection, the rats in all those groups except normal control group were injected intraperitoneally with 5.5 mmol/kg acetamide. Above injections continued for 4 days. In the 4th day, 30 min after the acetamide injection, blood samples of the rats in each group were collected by eyeball removing method immediately, and processed with the anticoagulant EDTA-Na, then the blood ammonia concentration was determined using conventional method.
(§1) The dose of sodium glutamate in this example and following examples was settled with the reference of its actual clinical dose. The method for determining the blood ammonia concentration in this example and following examples was enzyme-UV method, the instrument used was HITACHI-7170 automatic analyzer, and the kit used was AMMONIA kit. Calculation formula of decrease ratio in Table 1 and following tables was: Decrease rate=[1−(concentration of treating group−concentration of normal control group)/(concentration of experimental control group−concentration of normal control group)]×100%.
Using the same experiment method, 90 min after the acetamide injection at the 4th day, blood samples of the rats in each group were collected by eyeball removing method immediately. The blood ammonia concentration was determined.

[3] = rats
[4] = Brain tissue entrance experiment; assay type: in vivo, rats; conditions: intragastric 300 mg/kg/day for 5 days; brain 1 hour after administration on 5th day; chloroform extract
Procedure: Experimental animals were healthy male rats. The drug was continually administrated intragastrically at a dose of 300 mg/kg/day, continued for 5 days. 1 hour after administration on the 5th day, rats were put to death and brains were taken out. The brain tissues were homogenized and then extracted with chloroform.

[5] = system: high-level brain ammonia animal model; assay: Brain tissue ammonia concentration reducing experiment (oral); assay type: in vivo, SD rats; conditions: for Reduction rate: brain tissue ammonia, oral for 4 days, 60 min after acetamide on 4th day; for Brain tissue ammonia concentration: oral for 4 days (sodium glutamate 200 mg/kg, Cryptotanshinone 150 mg/kg), brain 60 min after acetamide on 4th day
Source text: as §1
Experimental animals were 50 healthy male SD rats, weight between 250-300 g. They were randomly divided into 4 groups, i.e. normal control group, experimental control group ([…]), sodium glutamate/acetamide group, and Cryptotanshinone/acetamide group. […] 45 min after the injection, the rats in all those groups except the normal control group were injected intraperitoneally with 5.5 mmol/kg acetamide. Above injections continued for 4 days. In the 4th day, 60 min after the acetamide injection, the rats of each group were put to death, and brain tissue samples were taken out immediately and homogenized under low temperature condition, then the ammonia concentration in brain tissue was determined by using glutamate dehydrogenase assay.
The same experiment condition in example 6 was adopted except Sodium Glutamate oral taking (the dose was 200 mg/kg) instead of Sodium Glutamate injection and Cryptotanshinone oral taking (dose 150 mg/kg) instead of Cryptotanshinone injection. In the 4th day, 60 min after the acetamide injection, the rats of each group were put to death and brain tissue samples were taken out immediately. Then, the ammonia concentration in brain tissue was determined.

[6] = system: high-level brain ammonia animal model; assay: Brain tissue ammonia concentration reducing experiment (injection); assay type: in vivo, SD rats; conditions: for Reduction rate: brain tissue ammonia, intraperitoneal for 4 days, 60 min after acetamide on 4th day; for Brain tissue ammonia concentration: intraperitoneal for 4 days (sodium glutamate 410 mg/kg, Cryptotanshinone 30 mg/kg), brain 60 min after acetamide on 4th day
Source text: as §1
Experimental animals were 50 healthy male SD rats, weight between 250-300 g. They were randomly divided into 4 groups, i.e. normal control group, experimental control group ([…]), sodium glutamate/acetamide group, and Cryptotanshinone/acetamide group. The rats in all those groups except the normal control group were injected intraperitoneally with saline, sodium glutamate solution (with a dose of 410 mg/kg), and saline solution of Cryptotanshinone (containing small amount of surface active agent, with a dose of 30 mg/kg) respectively. 45 min after the injection, the rats in all those groups except the normal control group were injected intraperitoneally with 5.5 mmol/kg acetamide. Above injections continued for 4 days. In the 4th day, 60 min after the acetamide injection, the rats of each group were put to death, and brain tissue samples were taken out immediately and homogenized under low temperature condition, then the ammonia concentration in brain tissue was determined by using glutamate dehydrogenase assay.

AD rat model = assay: Impaired neuro-behavioral symptoms relieving experiment, Morris water labyrinth; assay type: in vivo, SD rats; design: key: —: −Normal; +Dysmnesia (Number of + indicates the extent of memory impairment, and +++++ represents the most severe case.); +++++ represents the most severe case; conditions: oral 200 mg/kg/day, D-galactose/acetamide rats
Source text: Experimental animals were 40 healthy male SD rats, weight between 250-300 g. They were randomly divided into 4 groups, i.e. normal control group, model control group A (D-galactose/quinolinic acid group), model control group B (D-galactose/acetamide group), and Cryptotanshinone group (D-galactose/acetamide/Cryptotanshinone group). Morris water labyrinth method was used to evaluate the neuro-behavioral symptoms of rats model caused by subacute senium and chemical damage by D-galactose.
Normal control group: routine breeding.
Model control group A (D-galactose/quinolinic acid group): D-galactose was injected subcutaneously (50 mg/kg/day, for 6 weeks) to cause subacute senium in rats. Quinolinic acid (1 μL, containing quinolinic acid 75 nmol) was injected into the rats' bilateral hippocampal gyrus to evidently decrease rats' labyrinth learning and memorizing ability, which served as animal model similar to AD.
Model control group B (D-galactose/acetamide group): D-galactose was injected subcutaneously (50 mg/kg/day, for 6 weeks) to cause subacute senium in rats; acetamide (10 mmol/kg/day) was injected intraperitoneally for 7 continuous days. […] The treated rats were served as animal model similar to AD.
Cryptotanshinone group (D-galactose/acetamide/Cryptotanshinone group):
Simultaneously with subcutaneous injection of D-galactose (50 mg/kg/day, for 6 weeks), Cryptotanshinone was orally administered (the dose was 200 mg/kg/day). 10 mmol/kg acetamide was intraperitoneally injected for 7 continuous days (Cryptotanshinone was orally given at the same time).

healthy male mice [7] = assay: 30 days toxicity test in mouse; assay type: in vivo; conditions: intragastric 200 mg/kg day for 30 days
Procedure: The drug was continually administrated intragastrically for 30 days with dose of 200 mg/kg day.

hyperammonemia rat model [8] = assay: Blood ammonia reducing experiment (oral); assay type: in vivo, SD rats

## C[C@H]1COC2=C1C(=O)C(=O)c1c2ccc2c1CCCC2(C)C [Cryptotanshinone]
Healthy male mice [1]
  LD50: > 30 g 1 kg
Healthy male mice [1]; dose added to 1.5 g/kg
  Toxic symptom or death: no toxic symptom or death
Hyperammonemia rat model [2]; 30 min after acetamide on 4th day
  Reduction rate: 60%
[3]
  Content of Cryptotanshinone in tissues: highest in blood and brain tissue
[4]
  Cryptotanshinone detected in brain tissue with HPLC: Significant amount
[5]
  Reduction rate: 45%
  Brain tissue ammonia concentration: 310 nmol/g
[6]
  Reduction rate: 60%
  Brain tissue ammonia concentration: 280 nmol/g
AD rat model; Day 1 after chemical damage
  AD Symptom-Dysmnesia Synthetic Index: —
AD rat model; Day 2 after chemical damage
  AD Symptom-Dysmnesia Synthetic Index: —
AD rat model; Day 3 after chemical damage
  AD Symptom-Dysmnesia Synthetic Index: —
AD rat model; Day 4 after chemical damage
  AD Symptom-Dysmnesia Synthetic Index: —
AD rat model; Day 5 after chemical damage
  AD Symptom-Dysmnesia Synthetic Index: +
AD rat model; Day 6 after chemical damage
  AD Symptom-Dysmnesia Synthetic Index: +
AD rat model; Day 7 after chemical damage
  AD Symptom-Dysmnesia Synthetic Index: +
Healthy male mice [7]
  Change in growth and development, hematopoiesis function, and biochemical index: no apparent abnormal change or toxic reaction
  Death of the tested mice: no death
  Pathology of major organs (anatomical and tissue microscopy inspection): No pathology change

## Cc1cccc2c3c(ccc12)C1=C(C(=O)C3=O)[C@@H](C)CO1 [Dihydrotanshinone I]
Hyperammonemia rat model [2]; 90 min after acetamide on 4th day
  Reduction rate: 100%
Hyperammonemia rat model [2]; intraperitoneal for 4 days (sodium glutamate 410 mg/kg, others 10 mg/kg), blood 90 min after acetamide on 4th day
  Blood ammonia concentration: 110 µmol/L
Hyperammonemia rat model [8]; blood ammonia, oral for 4 days, 90 min after acetamide on 4th day
  Reduction rate: 97%
Hyperammonemia rat model [8]; oral for 4 days (sodium glutamate 200 mg/kg, others 100 mg/kg), blood 90 min after acetamide on 4th day
  Blood ammonia concentration: 120 µmol/L

## N[C@@H](CCC(=O)[O-])C(=O)[O-].[Na+].[Na+] [Sodium Glutamate, reference compound]
[5]
  Reduction rate: 19%
  Brain tissue ammonia concentration: 370 nmol/g
[6]
  Reduction rate: 28%
  Brain tissue ammonia concentration: 350 nmol/g
